Measured values reported in PubChem BioAssay AID652124 (The Scripps Research Institute Molecular Screening Center, 2013).
Active and inactive are the calls of the source. The rule behind the calls is not given here.

Molecular target: Perilipin-5 (Homo sapiens) + 1-acylglycerol-3-phosphate O-acyltransferase ABHD5 (Homo sapiens) (UniProt Q00G26+Q8WTS1)
Assay: inhibition of ABHD5 association with perilipin-5 – biochemical, luminescence, dose response, round 2, late-stage follow-up (AID 652124)
Conditions: biochemical ABHD5-PLIN5 interaction

Chain of Perilipin-5 (Homo sapiens) + 1-acylglycerol-3-phosphate O-acyltransferase ABHD5 (Homo sapiens) (Q00G26 whole entry, looked up): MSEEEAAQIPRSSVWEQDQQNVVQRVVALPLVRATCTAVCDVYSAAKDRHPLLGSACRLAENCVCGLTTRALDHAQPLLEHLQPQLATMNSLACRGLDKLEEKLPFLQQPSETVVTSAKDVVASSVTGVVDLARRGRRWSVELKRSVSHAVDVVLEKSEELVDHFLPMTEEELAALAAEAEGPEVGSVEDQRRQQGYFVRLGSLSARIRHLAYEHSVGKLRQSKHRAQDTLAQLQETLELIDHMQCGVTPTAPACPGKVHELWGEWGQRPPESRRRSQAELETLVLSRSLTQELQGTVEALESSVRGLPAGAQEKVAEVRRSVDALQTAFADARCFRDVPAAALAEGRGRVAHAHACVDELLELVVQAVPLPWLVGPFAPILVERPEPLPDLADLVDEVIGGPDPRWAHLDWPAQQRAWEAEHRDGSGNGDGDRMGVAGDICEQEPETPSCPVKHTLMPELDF
Chain of Perilipin-5 (Homo sapiens) + 1-acylglycerol-3-phosphate O-acyltransferase ABHD5 (Homo sapiens) (Q8WTS1 whole entry, looked up): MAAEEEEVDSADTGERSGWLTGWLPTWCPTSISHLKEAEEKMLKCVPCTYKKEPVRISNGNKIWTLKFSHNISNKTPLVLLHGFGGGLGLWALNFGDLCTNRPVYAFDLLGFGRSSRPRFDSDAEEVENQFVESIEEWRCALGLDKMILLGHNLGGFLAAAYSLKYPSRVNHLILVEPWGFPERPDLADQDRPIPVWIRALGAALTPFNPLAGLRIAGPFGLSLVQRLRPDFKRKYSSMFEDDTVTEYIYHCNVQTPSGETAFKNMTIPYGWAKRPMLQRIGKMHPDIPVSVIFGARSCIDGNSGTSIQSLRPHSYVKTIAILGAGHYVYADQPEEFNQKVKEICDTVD

Row | SMILES | IC50
1 | O=C(CCn1cnc2ccccc21)N1CCN(S(=O)(=O)c2ccc3c(c2)OCCO3)CC1 | > 39.8 µM (inactive)
2 | CN(C)CCCN(C(=O)C1CCCCC1)c1nc2cc(Br)ccc2s1 | inactive
3 | CN1C(=O)c2ccccc2Sc2ccc(NC(=O)NCCc3cccs3)cc21 | 4.98 µM
4 | CN(C)CCCN(C(=O)C1CCCCC1)c1nc2cc(Cl)ccc2s1 | > 39.8 µM (inactive)
5 | CCCC(=O)N(CCCN1CCOCC1)c1nc2ccc(Cl)cc2s1 | > 39.8 µM (inactive)
6 | O=C(CCc1nc2ccccc2s1)N1CCN(S(=O)(=O)c2ccc3c(c2)OCCO3)CC1 | > 39.8 µM (inactive)
7 | Cc1ccc2cc(CC(=O)N3CCN(S(=O)(=O)c4ccc5c(c4)OCCO5)CC3)oc2c1 | inactive
8 | O=C(C1COc2ccccc2O1)N1CCN(S(=O)(=O)c2ccc3c(c2)OCCO3)CC1 (configuration not stated) | > 39.8 µM (inactive)
9 | CN(C)CCCN(C(=O)Cc1ccc(F)cc1)c1nc2ccc(Cl)cc2s1 | inactive
10 | COc1ccc(CC(=O)N2CCN(S(=O)(=O)c3ccc4c(c3)OCCCO4)CC2)cc1 | > 39.8 µM (inactive)
11 | CCCC(=O)Nc1ccc2c(c1)C(=O)N(C)c1cc(C)ccc1O2 | > 39.8 µM (inactive)
12 | CCCCCCNC(=O)Nc1ccc2c(c1)Sc1ccccc1C(=O)N2C | > 39.8 µM (inactive)
13 | COc1ccc(CC(=O)N2CCCN(S(=O)(=O)c3ccc(C)cc3)CC2)cc1OC | > 39.8 µM (inactive)
14 | CCc1ccc2c(CC(=O)N3CCN(S(=O)(=O)c4ccc5c(c4)OCCO5)CC3)coc2c1 | 3.88 µM
15 | O=C(CCc1c[nH]c2ccccc12)N1CCN(S(=O)(=O)c2ccc3c(c2)OCCO3)CC1 | > 39.8 µM (inactive)
16 | CCCCCCCNC(=O)Nc1ccc2c(c1)Sc1ccccc1C(=O)N2C | inactive
17 | CN(C)CCCN(C(=O)c1cc2ccccc2oc1=O)c1nc2ccc(Cl)cc2s1 | inactive
18 | COc1ccc(OCC(=O)Nc2ccc3c(c2)N(C(C)C)C(=O)c2ccccc2O3)cc1 | > 39.8 µM (inactive)
19 | CC(NC(=O)CN1CCN(S(=O)(=O)c2ccc3c(c2)OCCCO3)CC1)c1cc2ccccc2o1 (configuration not stated) | > 39.8 µM (inactive)
20 | O=C(Cc1ccc2c(c1)CCCC2)N1CCN(S(=O)(=O)c2ccc3c(c2)OCCO3)CC1 | inactive
21 | CCCCCNC(=O)Nc1ccc2c(c1)Sc1ccccc1C(=O)N2C | > 39.8 µM (inactive)
22 | CN1C(=O)c2ccccc2Sc2ccc(NC(=O)NCCCc3ccccc3)cc21 | 1.72 µM
23 | CN(C)CCCN(C(=O)CCc1ccccc1)c1nc2ccc(Cl)cc2s1 | inactive
24 | O=C(Cc1cccc(F)c1)N1CCN(S(=O)(=O)c2ccc3c(c2)OCCO3)CC1 | > 39.8 µM (inactive)
25 | CN1C(=O)c2ccccc2Sc2ccc(NC(=O)NCCc3ccccc3)cc21 | 3.7 µM
26 | Cc1ccc2c(CC(=O)N3CCN(S(=O)(=O)c4ccc5c(c4)OCCCO5)CC3)coc2c1C | 4.72 µM

The next lines start with the values.

Row | IC50 | SMILES
27 | 4.13 µM | CCS(=O)(=O)c1ncc(Cl)c(C(=O)Nc2ccc(C)cc2)n1
28 | 4.44 µM | CCCS(=O)(=O)c1ncc(Cl)c(C(=O)Nc2ccc(C(=O)OC)cc2)n1
29 | > 39.8 µM (inactive) | CC(C)N1C(=O)c2ccccc2Oc2ccc(NC(=O)c3ccccc3)cc21
30 | 3.8 µM | NS(=O)(=O)c1ccc(NC(=O)c2nc(S(=O)(=O)Cc3ccccc3)ncc2Cl)cc1
31 | > 39.8 µM (inactive) | CN1C(=O)c2ccccc2Oc2ccc(NC(=O)c3cc4ccccc4[nH]3)cc21
32 | 3.15 µM | Cc1ccc(CS(=O)(=O)c2ncc(Cl)c(C(=O)NCc3ccc4c(c3)OCO4)n2)cc1
33 | 1.64 µM | O=C(c1nc(S(=O)(=O)Cc2ccccc2)ncc1Cl)N(Cc1ccccc1)Cc1ccco1
34 | 1.45 µM | CS(=O)(=O)c1ncc(Cl)c(C(=O)Nc2ccc(C(F)(F)F)cc2)n1
35 | 1.76 µM | Cc1ccc(CS(=O)(=O)c2ncc(Cl)c(C(=O)Nc3cccc(C(F)(F)F)c3)n2)cc1
36 | > 39.8 µM (inactive) | CCCC(=O)Nc1ccc2c(c1)C(=O)N(C)c1ccccc1O2
37 | 3.56 µM | CN(C(=O)c1nc(S(C)(=O)=O)ncc1Cl)c1ccccc1
38 | inactive | CCCNC(=O)Nc1ccc2c(c1)N(CC)C(=O)c1ccccc1S2
39 | 6.48 µM | CCS(=O)(=O)c1ncc(Cl)c(C(=O)Nc2ccc(S(N)(=O)=O)cc2)n1
40 | 4.24 µM | Cc1ccc(NC(=O)c2nc(S(C)(=O)=O)ncc2Cl)cc1
41 | 2.95 µM | COc1ccc(CCNC(=O)c2nc(S(=O)(=O)Cc3ccc(F)cc3)ncc2Cl)cc1OC
42 | > 13.3 µM (inactive) | Cc1ccc(CS(=O)(=O)c2ncc(Cl)c(C(=O)Nc3nnc(C(C)C)s3)n2)cc1
43 | 2.17 µM | O=C(Nc1ccc2ccccc2c1)c1nc(S(=O)(=O)Cc2ccccc2)ncc1Cl
44 | 4.12 µM | CCCS(=O)(=O)c1ccc(Cl)c(C(=O)Nc2ccc(C(=O)OCC)cc2)c1
45 | 5.91 µM | Cc1ccc(CS(=O)(=O)c2ncc(Cl)c(C(=O)N3CCN(C)CC3)n2)cc1
46 | 2.19 µM | Cc1ccc(CS(=O)(=O)c2ncc(Cl)c(C(=O)Nc3cccc4ccccc34)n2)cc1
47 | > 39.8 µM (inactive) | CN1C(=O)c2ccccc2Oc2ccc(NC(=O)c3cccs3)cc21
